{"source": "patent US5502035A", "about": "“N-terminus modified analogs of LHRH” (Tap Holdings Inc., priority 1994, dated 1996)", "note": "Non-standard residues stand in square brackets, D forms with d. Residues, ends and D or L forms follow the SMILES beside them. *: point of attachment. dPhe(4-Cl) = N[C@H](Cc1ccc(Cl)cc1)C(=O)O; d2Nal = N[C@H](Cc1ccc2ccccc2c1)C(=O)O; d(hCit) = NC(=O)NCCCC[C@@H](N)C(=O)O; Lys(iPr) = CC(C)NCCCC[C@H](N)C(=O)O; NMeY = CN[C@@H](Cc1ccc(O)cc1)C(=O)O; d3Pal = N[C@H](Cc1cccnc1)C(=O)O; Nicotinoyl = O=C(c1cccnc1)*; X1 = O=C([C@@H]1CCCO1)*; GABA = NCCCC(=O)O; βAla = NCCC(=O)O; Sar = CNCC(=O)O"}
{"biological_target": "T1, LHRH (Rattus norvegicus, UniProt P30969)", "T1 construct": "endogenous in cells; host or cells: rat pituitary cells (own knowledge of the cited Haviv 1989 method)", "T1 sequence (P30969 1-327)": "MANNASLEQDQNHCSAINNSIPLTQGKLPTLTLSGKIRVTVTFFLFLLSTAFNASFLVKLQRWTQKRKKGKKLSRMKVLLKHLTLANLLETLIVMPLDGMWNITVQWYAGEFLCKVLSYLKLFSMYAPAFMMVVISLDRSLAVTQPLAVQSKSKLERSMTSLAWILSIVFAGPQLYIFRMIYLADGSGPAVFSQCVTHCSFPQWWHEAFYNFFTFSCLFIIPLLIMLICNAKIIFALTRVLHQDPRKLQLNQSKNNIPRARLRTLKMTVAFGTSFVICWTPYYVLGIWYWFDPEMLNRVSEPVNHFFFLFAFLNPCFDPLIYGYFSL", "assay": "in vitro test for LHRH antagonist potency (pA2)", "type": "cell-based", "conditions": "negative logarithm of the antagonist concentration required to shift the response curve produced by the agonist leuprolide to two-fold higher concentration", "in_short": "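Antagonism read against the agonist leuprolide on rat LHRH receptor; value is pA2, the −log of antagonist concentration that doubles the agonist concentration needed for the same response.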", "units": {"Kb": "nM"}}
{"molecule": "CC(C)C[C@H](NC(=O)[C@@H](CCCCNC(=O)c1cccnc1)NC(=O)[C@H](Cc1ccc(O)cc1)N(C)C(=O)[C@H](CO)NC(=O)[C@H](Cc1cccnc1)NC(=O)[C@@H](Cc1ccc(Cl)cc1)NC(=O)[C@@H](Cc1ccc2ccccc2c1)NC(=O)CNC(=O)[C@@H]1CCCO1)C(=O)N[C@@H](CCCCNC(C)C)C(=O)N1CCC[C@H]1C(=O)N[C@H](C)C(N)=O", "note": "[Example 83, N (S)-2-Tetrahydrofuroyl-Gly-D2Nal-D4ClPhe-3Pal-Ser-NMeTyr-DLys(N-epsilon-Nicotinyl) -Leu-Lys(N-epsilon-Isopropyl)-Pro-DAlaNH2]", "Kb": 0.0112}
{"molecule": "CC(C)C[C@H](NC(=O)[C@H](CCCCNC(=O)c1cccnc1)NC(=O)[C@H](Cc1ccc(O)cc1)N(C)C(=O)[C@H](CO)NC(=O)[C@@H](Cc1cccnc1)NC(=O)[C@@H](Cc1ccc(Cl)cc1)NC(=O)[C@@H](Cc1ccc2ccccc2c1)NC(=O)CNC(=O)[C@@H]1CCCO1)C(=O)N[C@@H](CCCCNC(C)C)C(=O)N1CCC[C@H]1C(=O)N[C@H](C)C(N)=O", "note": "[Example 85, N (S)-2-Tetrahydrofuroyl-Gly-D2Nal-D4ClPhe-D3Pal-Ser-NMeTyr-Lys(N-epsilon-Nicotinyl) -Leu-Lys(N-epsilon-Isopropyl)-Pro-DAlaNH2]", "Kb": 0.0112}
{"molecule": "CC(C)C[C@H](NC(=O)[C@@H](CCCCNC(=O)c1cccnc1)NC(=O)[C@H](Cc1ccc(O)cc1)N(C)C(=O)[C@H](CO)NC(=O)[C@@H](Cc1cccnc1)NC(=O)[C@H](Cc1ccc(Cl)cc1)NC(=O)[C@@H](Cc1ccc2ccccc2c1)NC(=O)CNC(=O)[C@@H]1CCCO1)C(=O)N[C@@H](CCCCNC(C)C)C(=O)N1CCC[C@H]1C(=O)N[C@H](C)C(N)=O", "note": "[Example 86, N (S)-2-Tetrahydrofuroyl-Gly-D2Nal-4ClPhe-D3Pal-Ser-NMeTyr-DLys(N-epsilon-Nicotinyl) -Leu-Lys(N-epsilon-Isopropyl)-Pro-DAlaNH2]", "Kb": 0.141}
{"molecule": "CC(C)C[C@@H](NC(=O)[C@@H](CCCCNC(=O)c1cccnc1)NC(=O)[C@H](Cc1ccc(O)cc1)N(C)C(=O)[C@H](CO)NC(=O)[C@@H](Cc1cccnc1)NC(=O)[C@@H](Cc1ccc(Cl)cc1)NC(=O)[C@@H](Cc1ccc2ccccc2c1)NC(=O)CNC(=O)[C@@H]1CCCO1)C(=O)N[C@@H](CCCCNC(C)C)C(=O)N1CCC[C@H]1C(=O)N[C@H](C)C(N)=O", "note": "[Example 87, N (S)-2-Tetrahydrofuroyl-Gly-D2Nal-D4ClPhe-D3Pal-Ser-NMeTyr-DLys(N-epsilon-Nicotinyl) -DLeu-Lys(N-epsilon-Isopropyl)-Pro-DAlaNH2]", "Kb": 0.269}
{"molecule": "CC(C)C[C@H](NC(=O)[C@@H](CCCCNC(=O)c1cccnc1)NC(=O)[C@H](Cc1ccc(O)cc1)N(C)C(=O)[C@H](CO)NC(=O)[C@@H](Cc1cccnc1)NC(=O)[C@@H](Cc1ccc(Cl)cc1)NC(=O)[C@@H](Cc1ccc2ccccc2c1)NC(=O)CNC(=O)[C@@H]1CCCO1)C(=O)N[C@@H](CCCCNC(C)C)C(=O)N1CCC[C@@H]1C(=O)N[C@H](C)C(N)=O", "note": "[Example 88, N (S)-2-Tetrahydrofuroyl-Gly-D2Nal-D4ClPhe-D3Pal-Ser-NMeTyr-DLys(N-epsilon-Nicotinyl) -Leu-Lys(N-epsilon-Isopropyl)-DPro-DAlaNH2]", "Kb": 0.158}
{"molecule": "CC(C)C[C@H](NC(=O)[C@@H](CCCCNC(=O)c1cccnc1)NC(=O)[C@H](Cc1ccc(O)cc1)N(C)C(=O)[C@H](CO)NC(=O)[C@@H](Cc1cccnc1)NC(=O)[C@@H](Cc1ccc(Cl)cc1)NC(=O)[C@@H](Cc1ccc2ccccc2c1)NC(=O)CNC(=O)[C@@H]1CCCO1)C(=O)N[C@H](CCCCNC(C)C)C(=O)N1CCC[C@H]1C(=O)N[C@H](C)C(N)=O", "note": "[Example 89, N (S)-2-Tetrahydrofuroyl-Gly-D2Nal-D4ClPhe-D3Pal-Ser-NMeTyr-DLys(N-epsilon-Nicotinyl) -Leu-DLys(N-epsilon-Isopropyl)-Pro-DAlaNH2]", "Kb": 0.132}
{"molecule": "CC(C)C[C@H](NC(=O)[C@@H](CCCCNC(=O)c1cccnc1)NC(=O)[C@@H](Cc1ccc(O)cc1)N(C)C(=O)[C@H](CO)NC(=O)[C@@H](Cc1cccnc1)NC(=O)[C@@H](Cc1ccc(Cl)cc1)NC(=O)[C@@H](Cc1ccc2ccccc2c1)NC(=O)CNC(=O)[C@@H]1CCCO1)C(=O)N[C@@H](CCCCNC(C)C)C(=O)N1CCC[C@H]1C(=O)N[C@H](C)C(N)=O", "note": "[Example 90, N (S)-2-Tetrahydrofuroyl-Gly-D2Nal-D4ClPhe-D3pal-Ser-DNMeTyr-DLys(N-epsilon-Nicotinyl) -Leu-Lys(N-epsilon-Isopropyl)-pro-DAlaNH2]", "Kb": 0.457}
{"molecule": "CC(C)C[C@H](NC(=O)[C@@H](CCCCNC(N)=O)NC(=O)[C@H](Cc1ccc(O)cc1)N(C)C(=O)[C@H](CO)NC(=O)[C@@H](Cc1cccnc1)NC(=O)[C@@H](Cc1ccc(Cl)cc1)NC(=O)[C@@H](Cc1ccc2ccccc2c1)NC(=O)CNC(=O)[C@@H]1CCCO1)C(=O)N[C@@H](CCCCNC(C)C)C(=O)N1CCC[C@H]1C(=O)N[C@H](C)C(N)=O", "note": "[Example 92, N (S)-2-Tetrahydrofuroyl-Gly-D2Nal-D4ClPhe-D3Pal-Ser-NMeTyr-DHcit-Leu-Lys(N- epsilon-Isopropyl) -Pro-DAlaNH2] (X1-G[d2Nal][dPhe(4-Cl)][d3Pal]S[NMeY][d(hCit)]L[Lys(iPr)]P[dA]-NH2)", "Kb": 0.0105}
{"molecule": "CC(C)C[C@H](NC(=O)[C@@H](CCCCNC(N)=O)NC(=O)[C@H](Cc1ccc(O)cc1)NC(=O)[C@H](CO)NC(=O)[C@@H](Cc1cccnc1)NC(=O)[C@@H](Cc1ccc(Cl)cc1)NC(=O)[C@@H](Cc1ccc2ccccc2c1)NC(=O)CNC(=O)[C@@H]1CCCO1)C(=O)N[C@@H](CCCCNC(C)C)C(=O)N1CCC[C@H]1C(=O)N[C@H](C)C(N)=O", "note": "[Example 93, N (S)-2-Tetrahydrofuroyl-Gly-D2Nal-D4ClPhe-D3Pal-Ser-Tyr-DHcit-Leu-Lys(N-epsilon-Isopropyl)-Pro-DAlaNH2] (X1-G[d2Nal][dPhe(4-Cl)][d3Pal]SY[d(hCit)]L[Lys(iPr)]P[dA]-NH2)", "Kb": 0.00589}
{"molecule": "CC(C)C[C@H](NC(=O)[C@@H](CCCCNC(=O)c1cccnc1)NC(=O)[C@H](Cc1ccc(O)cc1)N(C)C(=O)[C@H](CO)NC(=O)[C@@H](Cc1cccnc1)NC(=O)[C@@H](Cc1ccccc1)NC(=O)[C@@H](Cc1ccc2ccccc2c1)NC(=O)CNC(=O)[C@@H]1CCCO1)C(=O)N[C@@H](CCCCNC(C)C)C(=O)N1CCC[C@H]1C(=O)N[C@H](C)C(N)=O", "note": "[Example 94, N (S)-2-Tetrahydrofuroyl-Gly-D2Nal-DPhe-D3Pal-Ser-NMeTyr-DLys(Nic)-Leu-Lys(N-epsilon-Isopropyl)-Pro-DAlaNH2] (X1-G[d2Nal][dF][d3Pal]S[NMeY][dK](Nicotinoyl)L[Lys(iPr)]P[dA]-NH2)", "Kb": 0.00832}
{"molecule": "CC(C)C[C@H](NC(=O)[C@@H](CCCCNC(N)=O)NC(=O)[C@H](Cc1ccc(O)cc1)NC(=O)[C@H](CO)NC(=O)[C@@H](Cc1cccnc1)NC(=O)[C@@H](Cc1ccc(Cl)cc1)NC(=O)[C@@H](Cc1ccc2ccccc2c1)NC(=O)CNC(=O)[C@@H]1CCCO1)C(=O)N[C@@H](CCCNC(=N)N)C(=O)N1CCC[C@H]1C(=O)N[C@H](C)C(N)=O", "note": "[Example 95, N-(S)-2-Tetrahydrofuroyl-Gly-D2Nal-D4ClPhe-D3Pal-Ser-Tyr-DHcit-Leu-Arg-Pro- DAlaNH2] (X1-G[d2Nal][dPhe(4-Cl)][d3Pal]SY[d(hCit)]LRP[dA]-NH2)", "Kb": 0.00759}
{"molecule": "CC(C)C[C@H](NC(=O)[C@@H](CCCCNC(=O)c1cccnc1)NC(=O)[C@H](Cc1ccc(O)cc1)N(C)C(=O)[C@H](CO)NC(=O)[C@@H](Cc1cccnc1)NC(=O)[C@@H](Cc1ccc(Cl)cc1)NC(=O)[C@@H](Cc1ccc2ccccc2c1)NC(=O)CCNC(=O)[C@@H]1CCCO1)C(=O)N[C@@H](CCCCNC(C)C)C(=O)N1CCC[C@H]1C(=O)N[C@H](C)C(N)=O", "note": "[Example 96, N (S)-2-Tetrahydrofuroyl-Bala-D2Nal-D4ClPhe-D3Pal-Ser-NMeTyr-DLys(Nic)-Leu-Lys(Isp)-Pro-DAlaNH2] ({X1-βAla}-[d2Nal][dPhe(4-Cl)][d3Pal]S[NMeY][dK](Nicotinoyl)L[Lys(iPr)]P[dA]-NH2)", "Kb": 0.0275}
{"molecule": "CC(C)C[C@H](NC(=O)[C@@H](CCCCNC(=O)c1cccnc1)NC(=O)[C@H](Cc1ccc(O)cc1)N(C)C(=O)[C@H](CO)NC(=O)[C@@H](Cc1cccnc1)NC(=O)[C@@H](Cc1ccc(Cl)cc1)NC(=O)[C@@H](Cc1ccc2ccccc2c1)NC(=O)CCCNC(=O)[C@@H]1CCCO1)C(=O)N[C@@H](CCCCNC(C)C)C(=O)N1CCC[C@H]1C(=O)N[C@H](C)C(N)=O", "note": "[Example 97, N (S)-2-Tetrahydrofuroyl-Gaba-D2Nal-D4ClPhe-D3Pal-Ser-NMeTyr-DLys(Nic)-Leu-Lys(Isp)-Pro-DAlaNH2] ({X1-GABA}-[d2Nal][dPhe(4-Cl)][d3Pal]S[NMeY][dK](Nicotinoyl)L[Lys(iPr)]P[dA]-NH2)", "Kb": 0.0339}
{"molecule": "CC(C)C[C@H](NC(=O)[C@@H](CCCCNC(=O)c1cccnc1)NC(=O)[C@H](Cc1ccc(O)cc1)N(C)C(=O)[C@H](CO)NC(=O)[C@@H](Cc1cccnc1)NC(=O)[C@@H](Cc1ccc(Cl)cc1)NC(=O)[C@@H](Cc1ccc2ccccc2c1)NC(=O)CN(C)C(=O)[C@@H]1CCCO1)C(=O)N[C@@H](CCCCNC(C)C)C(=O)N1CCC[C@H]1C(=O)N[C@H](C)C(N)=O", "note": "[Example 99, N (S)-2-Tetrahydrofuroyl-Sar-D2Nal-D4ClPhe-D3Pal-Ser-NMeTyr-DLys(Nic),Leu-Lys(Isp)-Pro-DAlaNH2] (X1-[Sar][d2Nal][dPhe(4-Cl)][d3Pal]S[NMeY][dK](Nicotinoyl)L[Lys(iPr)]P[dA]-NH2)", "Kb": 0.0117}
